Series [1] relates to Clostridium difficile spores (VA11, VA17, ATCC 43593). The series is described as follows: Effect of altered pH on sporicidal activity of alcohol (spore suspension, log10CFU reduction). The class given is cell-based. As to conditions: 70% alcohol acidified to pH<2 (pH 1.5), 5 minutes, room temperature (FIG. 7A).
Method: (room temperature). B. subtilis, B. thuringiensis, and three strains of C. difficile spores were tested (described above in Spore Strains and Growth Conditions). The reaction was quenched by neutralizing 1:1 in Dey-Engley neutralization broth (BD Biosciences, San Jose, Calif., USA). Neutralized samples were serial diluted in deionized water, drop-plated, and cultured as described above in Spore Strains and Growth Conditions.
The reaction was quenched by neutralizing 1:1 in Dey-Engley neutralization broth (BD Biosciences, San Jose, Calif.). Neutralized samples were serially diluted in deionized water, drop-plated, and cultured as described previously. To increase the sensitivity of enumeration for samples with high levels of spore killing, 1 mL of the neutralized spore suspensions were spread-plated.
Series [2] has as its system B. subtilis spores. The note with it: room temperature, 1, 5, 10 minutes. How it is done:
(§1) To assess whether acidified ethanol truly kills spores or only renders them incapable of germination, recovery of killed spores was assessed by incubation in lysozyme or dodecylamine which bypass germinant receptors. To assess whether acidified ethanol kills spores through alteration in the permeability of the dormant spores' inner membrane barrier, we evaluated whether spore killing occurs in parallel with dipicolinic acid (DPA) release. C. difficile (VA17), B. thuringiensis and B. subtilis spores were suspended in water, water altered to pH 1.5, 70% ethanol, 70% ethanol altered to pH 1.5, 3.0 or 3.0 with increased ionic strength, and 1 mM dodecylamine (induces DPA release in spores of several species). After 1, 5, and 10 minutes of incubation at room temperature (about 22° C.), DPA release was assessed as previously described. […] Fluorescence was measured using a plate reader (SpectraMaxM2, Bucher Biotec, Basel, Switzerland) with the following settings: time resolved fluorescence (delay 50 μs, interval 1200 μs) at an excitation wavelength of 272 nm, emission wavelength of 545 nm, and 5 endpoint readings per sample at 22° C. To determine percent DPA release, relative fluorescence units (RFU) of test solutions were compared to the RFU of total spore DPA content (supernatant of 10^7 CFU spores suspended in water boiled for 30 minutes) as previously described.

In series [3] the test system is B. thuringiensis spores. As to conditions: room temperature, 1, 5, 10 minutes. How it is done:
as §1

The subject of series [4] is toxigenic C. difficile spores. Details: species or system Clostridium difficile. As to conditions: applied as a liquid or wipe. The text has this:
Reduction of toxigenic C. difficile spores inoculated on gloves of volunteers was compared after 30 or 60 second exposures to the sporicidal ethanol formulation, 70% ethanol, and 1:10 or 1:100 dilutions of household bleach; the solutions were applied both as a liquid solution and as a wipe. We also examined the efficacy of the sporicidal ethanol formulation for elimination of spore contamination from the gloves of healthcare personnel interacting with C. difficile infection (CDI) patients or their environment. To determine the potential for the disinfectants to damage clothing, the solutions were applied to pieces of colored cloth.

The subject of series [5] is C. difficile spores (strains VA11 and VA17). As to conditions: 70% ethanol, no pH alteration. How it is done: (§2) To determine the effect of elevated temperature on the sporicidal efficacy of ethanol, ten microliters of spores (˜10^6 CFU) were incubated in one mL of 70% ethanol or deionized water at about 22° C. (room temperature), 55° C. or 80° C. The pH was not altered for these experiments. B. subtilis, B. thuringiensis, and VA11 and VA17 C. difficile spores were tested (described above in Spore Strains and Growth Conditions). After 0, 5, 10, 20, 30 and 60 minutes of incubation at the appropriate temperature, aliquots of each spore suspension were serial diluted in deionized water, drop-plated, and cultured as described above in Spore Strains and Growth Conditions. Log10CFU reduction of spores was determined by calculating the difference in log10CFU recovered from baseline (spores incubated in water) and experimental groups (spores incubated in ethanol).

The subject of series [6] is B. subtilis spores. As to conditions: 70% ethanol, no pH alteration, 80° C., 60 minutes. How it is done:
as §2

Series [7] has as its system B. thuringiensis spores. As to conditions: 70% ethanol, no pH alteration, 80° C., 60 minutes. How it is done:
as §2

The test system of series [8] is C. difficile (VA17) spores. Kind of series: Dipicolinic acid (DPA) release, terbium fluorescence. The format is cell-based, Clostridium difficile. The note with it: room temperature, within 10 minutes; compared to water, 70% ethanol and pH 1.5 water. The protocol: as §1
The next series has as its system spores. The series is described as follows: Other antibacterial compounds in combination with acidified ethanol (sporicidal activity). The class given is cell-based. As to conditions: compared with addition of peracetic acid.
Series [9] deals with C. difficile (VA17) spores. The series is described as follows: Effect of addition of dilute peracetic acid on sporicidal activity of acidified ethanol. As to conditions: peracetic acid alone at 450, 650 and 1500 ppm, 3 minute dwell time. The class given is cell-based, Clostridium difficile. The protocol: (§3) The effect of addition of peracetic acid on activity of acidified ethanol against C. difficile (VA17) and B. subtilis was tested at room temperature (about 22° C.). The pH of specified test solutions was adjusted to 2.5 or 1.5 with hydrochloric acid (HCl). Ten microliters of spores (about 10^6 CFU) were inoculated into one mL of water (baseline), pH adjusted ethanol, peracetic acid at 450, 650, or 1500 ppm, pH adjusted peracetic acid at 450 and 650 ppm, ethanol plus peracetic acid at 450 and 650 ppm, and pH adjusted ethanol plus peracetic acid at 450 and 650 ppm. Spore suspensions were incubated at room temperature for three minutes. The reaction was quenched by neutralizing 1:1 in Dey-Engley neutralization broth (BD Biosciences). […] Experiments were performed in triplicate.
(§4) The effect of the addition of dilute PAA on the activity of acidified ethanol against C. difficile strain VA17 and B. subtilis was tested at 22° C. The pH of specified test solutions was adjusted to 2.5 or 1.5 with hydrochloric acid. Ten μL of spores (˜10^6 CFU) were inoculated into one mL of water (baseline), pH adjusted ethanol, PAA at 450, 650, or 1500 ppm, pH adjusted PAA at 450 and 650 ppm, ethanol plus PAA at 450 and 650 ppm, and pH adjusted ethanol plus PAA at 450 and 650 ppm and incubated for 3 minutes. The reaction was quenched by neutralizing 1:1 in Dey-Engley neutralization broth. […]

Series [10] concerns non-toxigenic C. difficile spores (ATCC 43593). The series is described as follows: Reduction of C. difficile spores on hands of volunteers (fingerpad method, modified ASTM E 2276-10). The format is in vivo, Clostridium difficile. As to conditions: Example 3; P>0.05. How it is done: A modification of the “Standard Test Method for Determining the Bacteria-Eliminating Effectiveness of Hygienic Handwash and Handrub Agents Using the Fingerpads of Adults” (American Society for Testing and Materials E 2276-10) was used to determine the efficacy of test solutions against non-toxigenic C. difficile spores. Each fingerpad of both hands were contaminated with 10 μL of a liquid inoculum containing 6 log10CFU of ATCC 43593 spores. The fingerpads were rubbed together until the inoculum was dry. Hand contamination levels were measured using the fingerpad sampling method. In brief, the fingerpads of each hand were rubbed with slight friction against the bottom of a 150 mm×15 mm Petri dish filled with 25 mL of Dey-Engley neutralizer (BD Biosciences, San Jose, Calif., USA) for 30 seconds. […] Log10 reductions were calculated by subtracting log10 CFU recovered after hand hygiene treatment from log10 CFU recovered from hands without treatment.
A crossover design was used such that each volunteer was exposed to three of the disinfection procedures. […] The person reading the plates to quantify spore counts was blinded to the test product that was used. […]
Similar experiments were conducted to assess the efficacy of dilute peracetic acid-containing solutions and acidified ethanol solutions at 42° C. […] Reductions in spore counts were then determined as described previously. […]

The conditions of series [11]: in-use concentrations of surface disinfectants (~1500 ppm); cited from earlier work.
Series [12] concerns B. subtilis spores. The series is described as follows: Effect of addition of dilute peracetic acid on sporicidal activity of acidified ethanol. The class given is cell-based, Bacillus subtilis. As to conditions: peracetic acid alone at 450, 650 and 1500 ppm, 3 minute dwell time. The protocol:
as §3, §4

Where only a bound is given, the exact number is not on record here.

Take `CCCO` [1-propanol]: in [1], the “Sporicidal activity against C. difficile spores on acidification of the alcohol” value was “induced sporicidal activity”.

For `CC(C)O` [2-propanol], the “Sporicidal activity against C. difficile spores on acidification of the alcohol” value in series [1] is “induced sporicidal activity”.

As for `CCO` [70% ethanol, ethanol], in the series with B. subtilis spores [2], the “DPA release from B. subtilis spores” value is listed as “did not”. In addition, the “DPA release from B. thuringiensis spores” value with B. thuringiensis spores [3] was “low levels of baseline DPA release”. In addition, in series [4], the “Reduction in spores on gloves” value was less than 1 log. In series [5] (55° C., 60 minutes), the “Log10CFU reduction of C. difficile spores” value came to 1 log10CFU. Moreover, the “Detectable C. difficile spores” value in series [5] (80° C., 10 minutes) is “no C. difficile spores were detectable”. Besides, the “Log10CFU reduction of B. subtilis spores” value with B. subtilis spores [6] is recorded as more than 4 log10CFU. For the same molecule, the “Log10CFU reduction of B. thuringiensis spores” value in the series on B. thuringiensis spores [7] is listed as more than 5 log10CFU. Also, the “DPA release from C. difficile spores” value in [8] is reported as “low levels of baseline DPA release”.

For `[O][Cl+][O-]` [chlorine dioxide], the “Enhancement of sporicidal activity on addition to acidified ethanol” value (“Enhancement of sporicidal activity” below) with spores is listed as “did not result in similar enhancement of sporicidal activity”.

Turning to `[Cu]` [copper], in the series on spores, the “Enhancement of sporicidal activity” value is on record as “did not result in similar enhancement of sporicidal activity”.

In the case of `II` [iodine], the “Enhancement of sporicidal activity” value with spores was “did not result in similar enhancement of sporicidal activity”.

Regarding `CC(=O)OO` [peracetic acid], the “Reduction of C. difficile spores” value in series [9] is “in a dose-dependent fashion”. In addition, in series [10], the “Reduction in C. difficile spores on hands compared with soap and water hand wash” value is reported as “not significantly different”. Also, in series [11], the Skin irritation result is given as “does not cause skin irritation”. In addition, the “Reduction of B. subtilis spores” value in the series with B. subtilis spores [12] is recorded as “in a dose-dependent fashion”.

On to `OCl` [sodium hypochlorite], for which the “Enhancement of sporicidal activity” value with spores is listed as “did not result in similar enhancement of sporicidal activity”.
